Legend:
Escherichia coli [1] = experiment: Binding affinity to Escherichia coli MRE600 ribosome assessed as protection against N1-cyclohexyl-N3-(2-morpholino)ethylcarbodiimide p-toluenesulfonate-induced modifications at nucleotide U2585 in peptidyl transferase center of 23S rRNA at 50 uM by chemical footprinting relative to control
Escherichia coli [2] = experiment: Binding affinity to Escherichia coli MRE600 ribosome assessed as protection against N1-cyclohexyl-N3-(2-morpholino)ethylcarbodiimide p-toluenesulfonate-induced modifications at nucleotide U2506 in peptidyl transferase center of 23S rRNA at 50 uM by chemical footprinting relative to control
Escherichia coli [3] = experiment: Binding affinity to Escherichia coli MRE600 ribosome assessed as protection against N1-cyclohexyl-N3-(2-morpholino)ethylcarbodiimide p-toluenesulfonate-induced modifications at nucleotide U2506 in peptidyl transferase center of 23S rRNA at 5 uM by chemical footprinting relative to control
Escherichia coli [4] = experiment: Binding affinity to Escherichia coli MRE600 ribosome assessed as protection against N1-cyclohexyl-N3-(2-morpholino)ethylcarbodiimide p-toluenesulfonate-induced modifications at nucleotide U2585 in peptidyl transferase center of 23S rRNA at 5 uM by chemical footprinting relative to control

Row | Compound | Activity (Escherichia coli [1]) | Activity (Escherichia coli [2]) | Activity (Escherichia coli [3]) | Activity (Escherichia coli [4])
1 | C=C[C@]1(C)C[C@@H](OC(=O)Cn2cc(CO[C@@H]3[C@H](O)[C@@H](CO)O[C@H]3n3ccc(=O)[nH]c3=O)nn2)[C@]2(C)[C@H](C)CC[C@]3(CCC(=O)[C@@H]32)[C@@H](C)[C@@H]1O | 0.29 | 0.14 | 0.54 | 0.72
2 | C=C[C@]1(C)C[C@@H](OC(=O)CSCCN(CC)CC)[C@]2(C)[C@H](C)CC[C@]3(CCC(=O)[C@H]32)[C@@H](C)[C@@H]1O | 0.58 | 0.05 | 0.1 | 0.59
3 | C=C[C@]1(C)C[C@@H](OC(=O)Cn2cc(CCn3cnc4c(N)ncnc43)nn2)[C@]2(C)[C@H](C)CC[C@]3(CCC(=O)[C@@H]32)[C@@H](C)[C@@H]1O | 0.26 | 0.1 | 0.37 | 0.4
4 | C=C[C@]1(C)C[C@@H](OC(=O)Cn2cc(Cn3ccc(N)nc3=O)nn2)[C@]2(C)[C@H](C)CC[C@]3(CCC(=O)[C@@H]32)[C@@H](C)[C@@H]1O | 0.38 | 0.16 | 0.61 | 0.69
5 | C=C[C@]1(C)C[C@@H](OC(=O)Cn2cc(CCCc3ccccc3)nn2)[C@]2(C)[C@H](C)CC[C@]3(CCC(=O)[C@@H]32)[C@@H](C)[C@@H]1O | 0.41 | 0.08 | 0.21 | 0.48
6 | C=C[C@]1(C)C[C@@H](OC(=O)Cn2cc(C[C@H](O)[C@@H]3O[C@H](n4cc(C)c(=O)[nH]c4=O)C[C@H]3O)nn2)[C@]2(C)[C@H](C)CC[C@]3(CCC(=O)[C@@H]32)[C@@H](C)[C@@H]1O | 0.35 | 0.09 | 0.33 | 0.69
7 | C=C[C@]1(C)C[C@@H](OC(=O)Cn2cc([C@]3(O)[C@@H](CO)O[C@@H](n4ccc(=O)[nH]c4=O)[C@@H]3O)nn2)[C@]2(C)[C@H](C)CC[C@]3(CCC(=O)[C@@H]32)[C@@H](C)[C@@H]1O | 0.18 | 0.03 | 0.24 | 0.45
8 | C=C[C@]1(C)C[C@@H](OC(=O)Cn2cc(COC[C@H]3O[C@@H](n4cc(C)c(=O)[nH]c4=O)C[C@@H]3O)nn2)[C@]2(C)[C@H](C)CC[C@]3(CCC(=O)[C@@H]32)[C@@H](C)[C@@H]1O | 0.36 | 0.19 | 0.62 | 0.93
9 | C=C[C@]1(C)C[C@@H](OC(=O)Cn2cc(Cc3ccccc3)nn2)[C@]2(C)[C@H](C)CC[C@]3(CCC(=O)[C@@H]32)[C@@H](C)[C@@H]1O | 0.29 | 0.06 | 0.31 | 0.54
10 | C=C[C@]1(C)C[C@@H](OC(=O)Cn2cc(CO[C@@H]3C[C@@H](n4cc(C)c(=O)[nH]c4=O)O[C@H]3CO)nn2)[C@]2(C)[C@H](C)CC[C@]3(CCC(=O)[C@@H]32)[C@@H](C)[C@@H]1O | 0.41 | 0.12 | 0.44 | 0.73
11 | C=C[C@]1(C)C[C@@H](OC(=O)Cn2cc(Cn3cnc4c(N)ncnc43)nn2)[C@]2(C)[C@H](C)CC[C@]3(CCC(=O)[C@@H]32)[C@@H](C)[C@@H]1O | 0.37 | 0.19 | 0.73 | 0.73
12 | C=C[C@]1(C)C[C@@H](OC(=O)CO)[C@]2(C)[C@H](C)CC[C@]3(CCC(=O)[C@@H]32)[C@@H](C)[C@@H]1O | 0.98 | 0.1 | 0.42 | 0.99
13 | C=C[C@]1(C)C[C@@H](OC(=O)Cn2cc(Cn3cc(C)c(=O)[nH]c3=O)nn2)[C@]2(C)[C@H](C)CC[C@]3(CCC(=O)[C@@H]32)[C@@H](C)[C@@H]1O | 0.37 | 0.18 | 0.69 | 0.75
14 | C=C[C@]1(C)C[C@@H](OC(=O)Cn2cc(CCn3cc(C)c(=O)[nH]c3=O)nn2)[C@]2(C)[C@H](C)CC[C@]3(CCC(=O)[C@@H]32)[C@@H](C)[C@@H]1O | 0.36 | 0.1 | 0.53 | 0.57
15 | C=C[C@]1(C)C[C@@H](OC(=O)Cn2cc(CCCn3ccc(N)nc3=O)nn2)[C@]2(C)[C@H](C)CC[C@]3(CCC(=O)[C@@H]32)[C@@H](C)[C@@H]1O | 0.26 | 0.05 | 0.27 | 0.56
16 | C=C[C@]1(C)C[C@@H](OC(=O)Cn2cc(CCCn3cnc4c(N)ncnc43)nn2)[C@]2(C)[C@H](C)CC[C@]3(CCC(=O)[C@@H]32)[C@@H](C)[C@@H]1O | 0.22 | 0.06 | 0.17 | 0.33
17 | C=C[C@]1(C)C[C@@H](OC(=O)Cn2cc(CCc3ccccc3)nn2)[C@]2(C)[C@H](C)CC[C@]3(CCC(=O)[C@@H]32)[C@@H](C)[C@@H]1O | 0.35 | 0.05 | 0.29 | 0.61
18 | C=C[C@]1(C)C[C@@H](OC(=O)Cn2cc([C@@H](O)[C@@H]3O[C@H](n4cc(C)c(=O)[nH]c4=O)C[C@H]3O)nn2)[C@]2(C)[C@H](C)CC[C@]3(CCC(=O)[C@@H]32)[C@@H](C)[C@@H]1O (mixture of isomers) | 0.25 | 0.1 | 0.38 | 0.5
19 | C=C[C@]1(C)C[C@@H](OC(=O)Cn2cc(C[C@@H](O)[C@@H]3O[C@H](n4cc(C)c(=O)[nH]c4=O)C[C@H]3O)nn2)[C@]2(C)[C@H](C)CC[C@]3(CCC(=O)[C@@H]32)[C@@H](C)[C@@H]1O | 0.29 | 0.09 | 0.32 | 0.59
20 | C=C[C@]1(C)C[C@@H](OC(=O)Cn2cc(CCCn3cc(C)c(=O)[nH]c3=O)nn2)[C@]2(C)[C@H](C)CC[C@]3(CCC(=O)[C@@H]32)[C@@H](C)[C@@H]1O | 0.24 | 0.08 | 0.41 | 0.46
21 | C=C[C@]1(C)C[C@@H](OC(=O)Cn2cc([C@]3(O)[C@H](O)[C@@H](CO)O[C@H]3n3ccc(=O)[nH]c3=O)nn2)[C@]2(C)[C@H](C)CC[C@]3(CCC(=O)[C@@H]32)[C@@H](C)[C@@H]1O | 0.35 | 0.18 | 0.61 | 0.74
